{"source": "patent US20260166033A1", "about": "“USE OF A FGFR3 TYROSINE KINASE INHIBITOR FOR THE TREATMENT OF FGFR-RELATED BONE REPAIR AND BONE FORMATION IMPAIRMENTS” (INSTITUT NATIONAL DE LA SANTÉ ET DE LA RECHERCHE MÉDICALE, priority 2021, published 2026)", "key": {"[1]": {"test_system": "mouse model of ACH (Fgfr3Y367C/+)", "details": "Fgfr3Y367C/+ mice; Komla Ebri et al 2016, Biosse Duplan et al 2016; cited from earlier work"}, "[2]": {"test_system": "HCH mice (Fgfr3^N534K/+)", "experiment": "Non-stabilized mandibular fracture bone repair in the HCH mouse model, microCT scans and repair grade", "format": "in vivo", "method": "Mandibular bone repair was studied in the HCH mouse model (Fgfr3^N534K/+). The experiments were performed in adult animals at 6 weeks of age, and mice were euthanized at 4 key points: during bone repair (10, 14, 21 days post fracture), and at the end of the normal bone healing process i.e. at 28 days post fracture.\nVertical mandibular fractures were performed in the ascending ramus region in Fgfr3^N534K/+ and Fgfr3^+/+ mice. This is a non-stabilized mandibular fracture protocol allowing to analyze the endochondral bone repair process.\nFour batches (n=100) of Fgfr3^N534K/+ and Fgfr3^+/+ mandible fractures corresponding to different key stages of repair were studied (day 10, day 14, day 21, day 28). Using collagen type II (proliferative cartilage), type X (hypertrophic cartilage) and type I (bone) immunolabelling, we observed that the endochondral process is disturbed, we noted a delayed cartilage resorption, a reduction in the size of hypertrophic chondrocytes area and a defect in bone formation within the repair callus in Fgfr3^N534K/+ compared to Fgfr3^+/+. […] We observed the presence of pseudarthrosis (fibrosis in the callus) in Fgfr3^N534K/+ mice whereas we observed 100% of bone in Fgfr3^+/+ callus. Considering the quality of the newly formed bone at day 28, we defined four grades of repair and classified the mice according to their repair grade (from 1 to 4). The defective repair is significant in Fgfr3^N534K/+ compared to Fgfr3^+/+ (FIG. 1C).\nHCH mice (Fgfr3^N534K/+) were treated with infigratinib (subcutaneous injections at 4 mg/kg, 3 times per week) from day 0 (facture of the mandible) to day 14 or day 28. The bone repair analyses were evaluated by microCT scans at day 14 and day 28 post fracture (FIGS. 1A and 1B). We quantified BV/TV (Bone Volume/Total Volume) and Callus volume (ratio TV (total volume) of the callus/TV of the contralateral ascending ramus region)."}, "[3]": {"details": "day 28 grade repair, treated Fgfr3^N534K/+ mice"}}}
{"smiles": "CCN1CCN(c2ccc(Nc3cc(N(C)C(=O)Nc4c(Cl)c(OC)cc(OC)c4Cl)ncn3)cc2)CC1", "note": "[BGJ398, 3-(2,6-dichloro-3,5-dimethoxyphenyl)-1-[6-[4-(4-ethylpiperazin-1-yl)anilino]pyrimidin-4-yl]-1-methylurea]", "values": [{"measurement": "Effect on affected skeletal elements (long bones, vertebrae, intervertebral discs, craniofacial morphology, foramen magnum)", "setting": "[1]", "value": "improvement of many of the affected skeletal elements in ACH"}, {"measurement": "Effect on defective bone reparation of the callus (summary in words)", "setting": "[2]; HCH mandible, non-stabilized fracture", "value": "partially restore the defective bone reparation of the callus, increases the bone volume/total volume without pseudarthrosis"}, {"measurement": "Callus volume (ratio TV of the callus/TV of the contralateral ascending ramus region), treated vs untreated HCH mice", "setting": "[2]; day 14 post fracture, subcutaneous 4 mg/kg, 3 times per week from day 0, microCT", "value": "unchanged"}, {"measurement": "BV/TV (Bone Volume/Total Volume), change in treated vs untreated HCH mice", "setting": "[2]; day 14 post fracture, subcutaneous 4 mg/kg, 3 times per week from day 0, microCT, p<0.05", "value": "+20.8%"}, {"measurement": "Complete bone healing (grade 1), mice with this repair grade", "setting": "[2]; [3]", "value": "7/10"}, {"measurement": "Restoration of bone continuity, but presence of mild bone defects (grade 2), mice with this repair grade", "setting": "[2]; [3]", "value": "3/10"}, {"measurement": "Callus volume, change in treated vs untreated HCH mice", "setting": "[2]; day 28 post fracture, subcutaneous 4 mg/kg, 3 times per week from day 0, microCT, p<0.0001", "value": "−38.6", "unit": "%"}, {"measurement": "BV/TV (Bone Volume/Total Volume), change in treated vs untreated HCH mice", "setting": "[2]; day 28 post fracture, subcutaneous 4 mg/kg, 3 times per week from day 0, microCT, p<0.01", "value": "+17.8%"}]}
